The values below come from US11142515B2, “Pyrazolyl-ureas as kinase inhibitors” (RESPIVERT LIMITED, priority 2014, dated 2021).

Assay [1] deals with T1, p38 MAPKα isoform (MAPK14) (Homo sapiens, UniProt Q16539).
T1 construct: purchased Life Technologies
As to the kind of experiment: p38 MAPKα enzyme inhibition (Z-LYTE FRET). Type of assay: biochemical. The conditions noted are these: Table 2B, unit inferred; read-out: p38 MAPKα (Enzyme Profile). As for the experimental part:
(§1) The enzyme inhibitory activities of compounds disclosed herein were determined by FRET using synthetic peptides labelled with both donor and acceptor fluorophores (Z-LYTE, Life Technologies, Paisley, UK).
The inhibitory activities of compounds of the invention against the p38 MAPKα isoform (MAPK14: Life Technologies), were evaluated indirectly by determining the level of activation/phosphorylation of the target peptide of the p38 MAPKα down-stream molecule, MAPKAP-K2. The enzyme (40 ng/mL, 2.5 μL) was incubated with the test compound (2.5 μL of either 40 μg/mL, 12 μg/mL, 4 μg/mL, 1.2 μg/mL, 0.4 μg/mL, 0.12 μg/mL, 0.04 μg/mL, 0.012 μg/mL, 0.004 μg/mL or 0.0012 μg/mL) for 2 h at RT. […] Development reagent (protease, 5 μL) was added for 1 h prior to detection in a fluorescence microplate reader (EnVision, Perkin Elmer, Waltham, Mass., USA).
(§2) In all cases, the site-specific protease cleaves non-phosphorylated peptide only and eliminates the FRET signal. Phosphorylation levels of each reaction were calculated using the ratio of coumarin emission (donor) over fluorescein emission (acceptor), for which low ratios indicate high phosphorylation and high ratios indicate low phosphorylation levels.

The target of assay [2] is T2, p38MAPKγ (MAPK12) (Homo sapiens, UniProt P53778).
T2 construct: purchased Life Technologies
T2 sequence (P53778 1-367): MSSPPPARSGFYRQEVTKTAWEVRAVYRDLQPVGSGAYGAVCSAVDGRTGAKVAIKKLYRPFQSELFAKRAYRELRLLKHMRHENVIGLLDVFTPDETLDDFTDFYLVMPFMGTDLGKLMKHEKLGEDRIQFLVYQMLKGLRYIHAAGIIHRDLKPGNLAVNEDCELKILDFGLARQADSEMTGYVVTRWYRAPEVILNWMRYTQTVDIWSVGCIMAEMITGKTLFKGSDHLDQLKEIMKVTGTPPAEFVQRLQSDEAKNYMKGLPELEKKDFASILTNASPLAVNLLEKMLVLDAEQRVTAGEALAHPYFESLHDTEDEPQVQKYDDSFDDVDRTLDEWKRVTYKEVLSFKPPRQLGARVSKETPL
As to the kind of experiment: p38 MAPKγ enzyme inhibition (Z-LYTE FRET). Type of assay: biochemical. The conditions noted are these: Table 2B, unit inferred; read-out: p38 MAPKγ (Enzyme Profile). The method, then:
as §1
The inhibitory activities of compounds of the invention against p38MAPKγ (MAPK12: Life Technologies), were evaluated by determining the level of activation/phosphorylation of the target peptide. The enzyme (800 ng/mL, 2.5 μL) was incubated with the test compound (2.5 μL at either 40 μg/mL, 12 μg/mL, 4 μg/mL, 1.2 μg/mL, 0.4 μg/mL, 0.12 μg/mL, 0.04 μg/mL, 0.012 μg/mL, 0.004 μg/mL or 0.0012 μg/mL) for 2 h at RT. The FRET peptides (8 μM, 2.5 μL), and appropriate ATP solution (2.5 μL, 400 μM) were then added to the enzymes/compound mixtures and incubated for 1 h at RT. Development reagent (protease, 5 μL) was added for 1 h prior to detection in a fluorescence microplate reader (EnVision, Perkin Elmer).
as §2

T1 sequence (Q16539 whole entry, canonical isoform): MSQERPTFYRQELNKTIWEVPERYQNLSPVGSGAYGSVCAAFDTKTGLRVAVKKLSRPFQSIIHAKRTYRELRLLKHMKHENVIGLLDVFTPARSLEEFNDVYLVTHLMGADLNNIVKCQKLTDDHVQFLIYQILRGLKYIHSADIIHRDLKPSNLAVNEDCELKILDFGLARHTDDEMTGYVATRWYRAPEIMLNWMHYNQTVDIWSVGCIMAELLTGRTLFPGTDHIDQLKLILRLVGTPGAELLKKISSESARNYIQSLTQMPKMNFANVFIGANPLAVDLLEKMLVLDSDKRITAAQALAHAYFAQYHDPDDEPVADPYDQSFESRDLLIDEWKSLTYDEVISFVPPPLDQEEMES

For the compound `COc1ccc(-n2nc(C(C)(C)C)cc2NC(=O)Nc2ccc(OCc3ccnc(Nc4cncc(N(C)C)n4)c3)c3ccccc23)cc1` [Example 104, 1-(3-(tert-butyl)-1-(4-methoxyphenyl)-1H-pyrazol-5-yl)-3-(4-((2-((6-(dimethyl-amino)pyrazin-2-yl)amino)pyridin-4-yl)methoxy)naphthalen-1-yl)urea], the IC50 worked out at 8.9 nM in assay [1] and 223 nM in assay [2].

With `COCCN(CCOC)C(=O)c1cnc(Nc2cc(COc3ccc(NC(=O)Nc4cc(C(C)(C)C)nn4-c4ccc(C)cc4)c4ccccc34)ccn2)cn1` [Example 73], the IC50 turned out to be 19 nM in assay [1] and 259 nM in assay [2].

In the case of `COCCN(C)C(=O)c1cnc(Nc2cc(COc3ccc(NC(=O)Nc4cc(C(C)(C)C)nn4-c4ccc(C)cc4)c4ccccc34)ccn2)cn1` [Example 60], the IC50 is 14 nM in assay [1] and 144 nM in assay [2].

Regarding `CCOc1ccc(-n2nc(C(C)(C)C)cc2NC(=O)Nc2ccc(OCc3ccnc(Nc4cnccn4)c3)c3ccccc23)cc1F` [Example 183, 1-(3-(tert-butyl)-1-(4-ethoxy-3-fluorophenyl)-1H-pyrazol-5-yl)-3-(4-((2-(pyrazin-2-ylamino)pyridin-4-yl)methoxy)naphthalen-1-yl) urea], the IC50 was 38 nM in assay [1] and greater than 15500 nM in assay [2].

On to `CCc1cncc(Nc2cc(COc3ccc(NC(=O)Nc4cc(C(C)(C)C)nn4-c4cccc(COC)c4)c4ccccc34)ccn2)n1` [Example 222, 1-(3-(tert-butyl)-1-(3-(methoxymethyl)phenyl)-1H-pyrazol-5-yl)-3-(4-((2-((6-ethylpyrazin-2-yl)amino)pyridin-4-yl)methoxy)naphthalen-1-yl)urea], for which the IC50 in assay [1] worked out at 23 nM; in assay [2] it was 175 nM.

As for `Cc1cccc(-n2nc(C(C)(C)C)cc2NC(=O)Nc2ccc(OCc3ccnc(Nc4cncc(C5CC5)n4)c3)c3ccccc23)c1` [Example 160, 1-(3-(tert-butyl)-1-(m-tolyl)-1H-pyrazol-5-yl)-3-(4-((2-((6-cyclopropylpyrazin-2-yl)amino)pyridin-4-yl)methoxy)naphthalen-1-yl) urea], the IC50 in assay [1] came to 34 nM; in assay [2], 510 nM.

Take `CCOc1ccc(-n2nc(C(C)(C)C)cc2NC(=O)Nc2ccc(OCc3ccnc(Nc4cnccn4)c3)c3ccccc23)cc1C` [Example 197, 1-(3-(tert-butyl)-1-(4-ethoxy-3-methylphenyl)-1H-pyrazol-5-yl)-3-(4-((2-(pyrazin-2-ylamino)pyridin-4-yl)methoxy)naphthalen-1-yl)urea]: the IC50 in assay [1] is 37 nM; in assay [2], greater than 15600 nM.

Turning to `Cc1ccc(-n2nc(C(C)(C)C)cc2NC(=O)Nc2ccc(OCc3ccnc(Nc4cnc(C(=O)N5CCC[C@@H](O)C5)cn4)c3)c3ccccc23)cc1` [Example 233, (R)-1-(3-(tert-butyl)-1-(p-tolyl)-1H-pyrazol-5-yl)-3-(4-((2-((5-(3-hydroxypiperidine-1-carbonyl)pyrazin-2-yl)amino)pyridin-4-yl)methoxy)naphthalen-1-yl)urea], the IC50 in assay [1] was 9.4 nM; in assay [2] it was 98 nM.

For the compound `CO[C@@H]1CCCN(C(=O)c2cnc(Nc3cc(COc4ccc(NC(=O)Nc5cc(C(C)(C)C)nn5-c5ccc(C)cc5)c5ccccc45)ccn3)cn2)C1` [Example 239, (R)-1-(3-(tert-butyl)-1-(p-tolyl)-1H-pyrazol-5-yl)-3-(4-((2-((5-(3-methoxy-piperidine-1-carbonyl)pyrazin-2-yl)amino)pyridin-4-yl)methoxy)naphthalen-1-yl)urea], the IC50 came out at 14 nM in assay [1] and 130 nM in assay [2].

As for `Cc1ccc(-n2nc(C(C)(C)C)cc2NC(=O)Nc2ccc(OCc3ccnc(Nc4cnc(C(=O)NCCN5CCN(C)CC5)cn4)c3)c3ccccc23)cc1` [Example 260, 5-((4-(((4-(3-(3-(tert-butyl)-1-(p-tolyl)-1H-pyrazol-5-yl)ureido)naphthalen-1-yl)oxy)methyl)pyridin-2-yl)amino)-N-(2-(4-methylpiperazin-1-yl)ethyl)pyrazine-2-carboxamide], the IC50 is less than 0.39 nM in assay [1] and 47 nM in assay [2].

In the case of `CCCc1cncc(Nc2cc(COc3ccc(NC(=O)Nc4cc(C(C)(C)C)nn4-c4ccc(C)c(F)c4)c4ccccc34)ccn2)n1` [Example 194, 1-(3-(tert-butyl)-1-(3-fluoro-4-methylphenyl)-1H-pyrazol-5-yl)-3-(4-((2-((6-propyl-pyrazin-2-yl)amino)pyridin-4-yl)methoxy)naphthalen-1-yl)urea], the values for the IC50 in assay [1] and in assay [2] were 207 nM and 8410 nM, respectively.

On to `COCC#Cc1cncc(Nc2cc(COc3ccc(NC(=O)Nc4cc(C(C)(C)C)nn4-c4ccc(C)cc4)c4ccccc34)ccn2)n1` [Example 158, 1-(3-(tert-butyl)-1-(p-tolyl)-1H-pyrazol-5-yl)-3-(4-((2-((6-(3-methoxyprop-1-yn-1-yl)pyrazin-2-yl)amino)pyridin-4-yl)methoxy)naphthalen-1-yl)urea], for which the IC50 in assay [1] is 435 nM; in assay [2], greater than 15000 nM.

On to `CCc1cncc(Nc2cc(COc3ccc(NC(=O)Nc4cc(C(C)(C)C)nn4-c4cccc(Cl)c4)c4ccccc34)ccn2)n1` [Example 175, 1-(3-(tert-butyl)-1-(3-chlorophenyl)-1H-pyrazol-5-yl)-3-(4-((2-((6-ethylpyrazin-2-yl)amino)pyridin-4-yl)methoxy)naphthalen-1-yl)urea], for which the IC50 was 38 nM in assay [1] and greater than 15500 nM in assay [2].

With `Cc1ccc(-n2nc(C(C)(C)C)cc2NC(=O)Nc2ccc(OCc3ccnc(Nc4cncc(C(C)C)n4)c3)c3ccccc23)cc1` [Example 68], the IC50 in assay [1] came out at 132 nM; in assay [2], 624 nM.

With `Cc1ccc(-n2nc(C(C)(C)C)cc2NC(=O)Nc2ccc(OCc3ccnc(Nc4cnccn4)c3)c3ccccc23)cn1` [Example 198, 1-(3-(tert-butyl)-1-(6-methylpyridin-3-yl)-1H-pyrazol-5-yl)-3-(4-((2-(pyrazin-2-ylamino)pyridin-4-yl)methoxy)naphthalen-1-yl)urea], the IC50 in assay [1] is 10 nM; in assay [2], 111 nM.

As for `CC(C)(C)c1cc(NC(=O)Nc2ccc(OCc3ccnc(Nc4cnccn4)c3)c3ccccc23)n(-c2cccc(CCO)c2)n1` [Example 237, 1-(3-(tert-butyl)-1-(3-(2-hydroxyethyl)phenyl)-1H-pyrazol-5-yl)-3-(4-((2-(pyrazin-2-ylamino)pyridin-4-yl)methoxy)naphthalen-1-yl)urea], the IC50 in assay [1] was found to be 8.4 nM; in assay [2] it was 29 nM.

With `Cc1ccc(-n2nc(C(C)(C)C)cc2NC(=O)Nc2ccc(OCc3ccnc(Nc4cnc(C(=O)N5CCNC(=O)C5)cn4)c3)c3ccccc23)cc1` [Example 249, 1-(3-(tert-butyl)-1-(p-tolyl)-1H-pyrazol-5-yl)-3-(4-((2-((5-(3-oxopiperazine-1-carbonyl)pyrazin-2-yl)amino)pyridin-4-yl)methoxy)naphthalen-1-yl)urea], the results for the IC50 in assay [1] and in assay [2] were 3.6 nM and 46 nM, respectively.

In the case of `Cc1ccc(-n2nc(C(C)(C)C)cc2NC(=O)Nc2ccc(OCc3ccnc(Nc4cnc(C(=O)N5CCN(C)C(=O)C5)cn4)c3)c3ccccc23)cc1` [Example 244, 1-(3-(tert-butyl)-1-(p-tolyl)-1H-pyrazol-5-yl)-3-(4-((2-((5-(4-methyl-3-oxopipera-zine-1-carbonyl)pyrazin-2-yl)amino)pyridin-4-yl)methoxy)naphthalen-1-yl) urea], the IC50 in assay [1] was determined as 3 nM; in assay [2] it was 46 nM.

With `COc1ccc(-n2nc(C(C)(C)C)cc2NC(=O)Nc2ccc(OCc3ccnc(Nc4cnccn4)c3)c3ccccc23)cc1F` [Example 148, 1-(3-(tert-butyl)-1-(3-fluoro-4-methoxyphenyl)-1H-pyrazol-5-yl)-3-(4-((2-(pyrazin-2-ylamino)pyridin-4-yl)methoxy)naphthalen-1-yl)urea], the results for the IC50 in assay [1] and in assay [2] were 13 nM and 247 nM, respectively.
